Reference: US20050158280A1, “Method of reducing angiogenesis” (priority 2001, published 2005)

What was measured:
ATPDase/CD39 [1] = conditions: COS-7 cells; cited from earlier work
CD39 mRNA = conditions: HUVEC, 48 h post-transfection; vs scrambled oligonucleotides and control liposomes; cited from earlier work
HUVEC [2] = conditions: cited from earlier work
HUVEC [3] = conditions: cited from earlier work; for rate of ATP hydrolysis by EC: HUVEC after transfection, n=9, liposome treated controls 17.9
CD39 = conditions: HUVEC, cited from earlier work; for immunoreactive intact CD39 (densitometric analysis of Western blot): 48 h after transfection, control liposomes = 100%
ATPDase/CD39 [4] = conditions: cited from earlier work; for Specific ADPase activity / ATPase activity: HUVEC lysate, n=6; for Specific ADPase activity: mean SD, control liposomes 26.0±3.1; for ATPase activity: control liposomes 28.2±4.6
peritoneal macrophages = assay: Cytofluorometric (FACS) analysis of macrophage integrin/ICAM-1 surface expression; assay type: cell-based, mouse; conditions: 200 μmol/L, vs control; for αmβ2 (MAC-1) and ICAM-1 coexpression levels: quiescent cd39-null macrophages; for cell surface coexpression of αmβ2 (MAC-1) and ICAM-1: wild-type macrophages, 30 minutes
Description: After isolation, naive peritoneal macrophages were also stimulated for 30 minutes (or for 24 hours) in RPMI+5% FCS, both at 37° C., with ATP 200 μmol/L, or with ATPγS 200 μmol/L, and then washed with PBS. Nonspecific binding of isospecific IgG was controlled by incubation with isospecific IgG conjugated to FITC and phycoerythrin, respectively. Cells were double-stained with phycoerythrin-conjugated rat anti-mouse CD11b in conjunction with FITC-labeled anti-mouse intercellular adhesion molecule (ICAM)-1 (or very late antigen-1, -4), respectively. Fluorescence-activated cell sorter (FACS) analysis was performed (FACSCAN™, Becton Dickinson). Data were analyzed with CELLQUEST™ computer software (Becton Dickinson).

monocyte/macrophages = assay: Transmigration of monocyte/macrophages through an endothelial cell monolayer; assay type: cell-based, mouse
Description: (§1) Transmigration assays through an endothelial cell monolayer were performed (Jones, G. E. J. Leukoc. Biol. 68:593-602, 2000). Murine 2F2B endothelial cells (ATCC) were plated on collagen type 1-coated polycarbonate inserts with 3-μm pores (Costar, Fisher Scientific) and then incubated in RPMI containing 5% FCS overnight to attain full confluence. Wild-type or cd39-null peritoneal macrophages were added to the upper chamber and incubated at 37° C. in 5% CO2 for 10 hours. In the lower chamber, culture media with chemoattractant factors at various combinations were added: ATP 200 μmol/L, serotonin 20 μmol/L, and monocyte chemoattractant factor-1 (MCP-1) 50 ng/mL. Nonadherent cells in both supernatant fluids were counted. In parallel experiments, inserts were precoated with collagen or MATRIGEL® alone. Wild-type and cd39-null macrophages were plated on the upper surface of coated inserts. Cells were allowed to adhere and migrate over a 6-hour period. Cells on the lower surface were fixed in 2% ethanol and stained with 0.2% crystal violet (Sigma). Four fields of vision (×400) per well were randomly chosen, and cell counts were performed manually by 2 observers in a blinded fashion.

macrophages = assay: Transmigration of macrophages on MATRIGEL-coated Transwell membranes; assay type: cell-based, mouse; conditions: for migration through MATRIGEL (FIG. 5, in words): cd39-null knockout (KO) macrophages; for number of transmigrated macrophages (normalized to wild-type): cd39-null macrophages, nonstimulated null 80±30.0% of wild-type; for number of transmigrated macrophages (normalized to wild-type) / number of transmigrated macrophages (normalized): MATRIGEL-coated Transwell; for number of transmigrated macrophages (normalized): wild-type macrophages, no endothelial cells, ATP 200 μmol/L, serotonin 20 μmol/L, MCP-1 50 ng/mL
Description: as §1

[5] = cd39-null monocyte/macrophages, ATP 200 μmol/L or MCP-1 50 ng/mL, spontaneous 6200±1200
[6] = wild-type monocyte/macrophages, ATP 200 μmol/L or MCP-1 50 ng/mL in lower chamber, spontaneous 4900±400

| Compound | Total cell protein content (HUVEC [2]) | rate of ATP hydrolysis by EC (HUVEC [3]) [pmole/min/10^6cells] | immunoreactive intact CD39 (densitometric analysis of Western blot) (CD39) [%] | Specific ADPase activity (ATPDase/CD39 [4]) [nmole Pi/min/mg protein] | ATPase activity (ATPDase/CD39 [4]) [nmole Pi/min/mg protein] | αmβ2 (MAC-1) and ICAM-1 coexpression levels (peritoneal macrophages) | cell surface coexpression of αmβ2 (MAC-1) and ICAM-1 (peritoneal macrophages) | monocyte/macrophages migrated across the endothelial cell monolayer (monocyte/macrophages; [5]) | monocyte/macrophages migrated across the endothelial cell monolayer (monocyte/macrophages; [6]) | migration through MATRIGEL (FIG. 5, in words) (macrophages) | number of transmigrated macrophages (normalized to wild-type) (macrophages) [%] | number of transmigrated macrophages (normalized) (macrophages) [%] | further results |
| --- | --- | --- | --- | --- | --- | --- | --- | --- | --- | --- | --- | --- | --- |
| 5′-CTCCTTTGTATCTTCCATAAGTAGC-3′ (antisense CTCCTTTGTATCTTCCATAAGTAGC; chimeric second generation modifications, further chemistry not given here) [antisense oligonucleotides] | 17.6±2.8 (g/10^6cells | 4.8 | 66 | 9.5±3.4 | 15.1±3.4 |  |  |  |  |  |  |  | ADPase levels, of control cells transfected with CD39 cDNA (ATPDase/CD39 [1]): 15%; ATPase levels, of control cells transfected with CD39 cDNA (ATPDase/CD39 [1]): approximately 5%; CD39 mRNA expression (Northern blotting) (CD39 mRNA): specifically inhibited transcription of CD39 mRNA; cell viability determined by trypan blue exclusion (HUVEC [2]): over 90%; boost of area under curve estimates of ATP release (HUVEC [3]; ADP-stimulated HUVEC, over first 15 min, compared to controls): 194%; apparent decrease in CD39 protein expression (qualitative Western blotting) (CD39; 48 h): approximately 40%; ATPase activity, of control levels (ATPDase/CD39 [4]; HUVEC, residual activity): 53%; ATPase activity, of that for scrambled control oligomers (ATPDase/CD39 [4]; HUVEC, residual activity): 51%; Normalized ADPase activity, compared with scrambled oligomers (ATPDase/CD39 [4]; HUVEC, residual activity): 42%; Normalized ADPase activity, of control liposomes (ATPDase/CD39 [4]; HUVEC, residual activity): 36% |
| 5′-TTCGTATCTTCGCTAGCTTATACAC-3′ (TTCGTATCTTCGCTAGCTTATACAC; chemistry not given here) [scrambled control oligonucleotides, scrambled control oligonucleotide] | 17.7±1.8 (g/10^6cells | 19.6 | 103 | 22.6±2.1 | 29.1±1.2 |  |  |  |  |  |  |  |  |
| Nc1ncnc2c1ncn2[C@@H]1O[C@H](COP(=O)(O)OP(=O)(O)OP(=O)(O)O)[C@@H](O)[C@H]1O [ATP, adenosine triphosphate] |  |  |  |  |  | largely unaltered | increased significantly | 8,750±4,100 cells | 22,300±3,300 cells | no substantial effect | 108±24 | 230±20 |  |
| Nc1ncnc2c1ncn2[C@@H]1O[C@H](COP(=O)(O)OP(=O)(O)OP(O)(O)=S)[C@@H](O)[C@H]1O [ATPγS] |  |  |  |  |  | largely unaltered | increased significantly |  |  |  |  |  |  |
| NCCc1c[nH]c2ccc(O)cc12 [serotonin] |  |  |  |  |  |  |  |  |  | no substantial effect | 98±20.0 | 120±20 |  |
| monocyte chemoattractant factor-1 [MCP-1] |  |  |  |  |  |  |  | 35,200±7,300 cells | 61,800±23,400 cells |  | 303±17 | 450±20 |  |
